Measured values: patent US20230399378A1, “PEPTIDE-BASED DELIVERY OF AGENTS” (THE FLOREY INSTITUTE OF NEUROSCIENCE AND MENTAL HEALTH, priority 2020, published 2023)

Assays:
[1] = test system: SMA patient-derived fibroblasts; assay: Confocal fluorescence uptake of Cy5-labelled peptide-PMO conjugates in SMA fibroblasts; type: cell-based, human; conditions: 1 μM; for intracellular fluorescence pattern: 1 hr at 37° C.; for cellular uptake on addition of endosomal escape domain HA2: 1 hr, versus counterparts without HA2
Procedure: FIG. 4. Representative confocal fluorescence microscopy images of SMA patient-derived fibroblasts treated with 1 μM of Cy5-labelled: (A) ApoE(141-150)-PMO; (B) HA2-ApoE(141-150)-PMO; (C) ApoE(133-150)-PMO; and (D) HA2-ApoE(133-150)-PMO, for 1 hr at 37° C.
SMA fibroblasts (6.0×10^4 cells/well) were plated onto a p-Slide 4 Well Ph+ Glass Bottom chamber slides precoated with poly-L-ornithine (Ibidi GmbH). After 24 hr, cells were incubated for 1 hr with Cy5-labelled peptide-PMO conjugates (1 μM or 5 μM) diluted in serum free Opti-MEM. At 10 min to end of 1 hr incubation, Hoechst (1:1000 dilution) was added to each well.

[2] = test system: SMN2; assay: SMN2 splice-switching for exon 7 inclusion by RT-qPCR in SMA Type I patient-derived fibroblasts (Example 2); type: cell-based, human; conditions: for level of exon-7 inclusion activity (full length SMN2/HPRT1, normalised to untreated control set to 1): treated 4 hrs, then 20 hrs growth medium, mean±SEM
Excerpt: FIG. 3. (A) SMN2 pre-mRNA exon-7 skipping and production of 80-90% SMN2Δ7 mRNA transcripts. Peptide-PMO binding to Intron-splicing silencer (ISS-N1) and restoration of SMN2 splicing and production of full-length SMN2 mRNA transcripts. The positions of forward and reverse primers highlighted on full-length mRNA. (B)-(C) Effect of administration of peptides linked to PMO for SMN2 exon 7 inclusion, measured as change in the level of full length SMN2/HPRT1 in SMA patient-derived fibroblasts, each at two concentrations, 0.5 μM and 1 μM (or 1 μM and 5 μM in the case of PMO alone). UT, untreated. (B) For PMO constructs, from left to right: PMO; ApoE(141-150)-PMO; ApoE(133-150)-PMO. (C) For PMO constructs, from left to right: PMO; HA2-PMO; GALA-PMO; NLS-PMO; ApoE(141-150)-PMO; HA2-ApoE(141-150)-PMO; GALA-ApoE(141-150)-PMO; NLS-ApoE(141-150)-PMO; H4-ApoE(141-150)-PMO; A4-ApoE(141-150)-PMO. *P<0.05,**P<0.001, ***P<0.0001 cf. Untreated (control) and PMO (1 and 5 μM); #P<0.001 cf. GALA-/NLS-/H4-ApoE(141-150)-PMO (1 μM), ^<0.001 cf. ApoE(133-150)-PMO (0.5 and 1 μM), ^OP<0.001 cf. ApoE(141-150)-PMO (1 μM), ^&P<0.05 cf.
The inventors then evaluated cellular uptake and activity of these peptide-PMO conjugates in SMA Type I patient-derived fibroblasts with two copies of SMN2. Efficiency of uptake was assessed by RT-qPCR using SMN2 splice-switching for exon 7 inclusion (see FIG. 3A).
SMA Type I patient-derived fibroblasts (SMN2^+/+, GM03813, Coriell Cell Repositories) were maintained in Dulbecco's Modified Eagle's Medium (DMEM), supplemented with 10% foetal bovine serum (FBS), 1% Penicillin/Streptomycin and 1% L-glutamine (L-glu) at 37° C. Cells were plated in 6-well plates at a density of 3×10^5/well in 6 well plates one day prior to treatment with PMO and peptide-PMO conjugates. Cells used were from passage 8-22. PMO and the peptide-PMO conjugates were dissolved in nuclease-free water and diluted to appropriate concentrations in Opti-MEM reduced serum medium. Cells were treated for 4 hrs at 37° C. The transfection medium was then removed and replaced with growth medium in which the cells were incubated for 20 hrs.
Cells were washed with PBS and total cellular RNA was extracted using Trizol (TRI Reagent®, Sigma) according to the manufacturer's instructions (Life Technologies). 400 ng purified RNA was reverse transcribed into cDNA using BioRad iScript Reverse Transcription Supermix kit according to the manufacturer's instructions. The reverse transcription was performed using the Veriti Thermal Cycler (ThermoFisher Scientific) with the thermal cycling conditions: 25° C. for 5 min, 46° C. for 20 min, 95° C. for 1 min followed by a 4° C. holding period.
Quantitative PCR (20 ng cDNA/well) was carried out in a 96-well plate in triplicate using SsoAdvanced Universal SYBR Green Supermix on a Biorad CFX96 Touch™ Real-Time PCR detection system. The amplification was carried out using full-length SMN2-specific primers: Ex-6 Forward 5′-[…]-3′ (SEQ ID NO:10) and Ex7-8 reverse 5′[…]-3′ (SEQ ID NO:11). Human HPRT1 was used as the internal reference gene with forward primer sequence 5′-[…]-3′ (SEQ ID NO:12) and reverse primer sequence 5′-[…]-3′ (SEQ ID NO:13). The ΔΔCt method was used to correct the Ct values against the HPRT1 Ct values. The values obtained were normalised to the untreated control values which were set to 1. Statistical analysis was carried out using one-way ANOVA with post-hoc Bonferroni for multiple groups comparison (GraphPad Prism V.8, 2018). All data are expressed as mean±SEM from at least three independent experiments with p<0.05 considered significant.

[3] = test system: fibroblasts; assay: Viability of fibroblasts by MTS assay (cytotoxicity); type: cell-based, human
Procedure: FIG. 5. Effect of the endosomal escape domain HA2 and lipidation of peptide-PMO conjugates on the viability of fibroblasts determined using MTS assay. UT, untreated control.
The peptide-PMO conjugates were tested up to 10 μM which is 10-fold greater than the concentration needed to achieve a high level of activity.

[4] = intrathecal injection; cited from earlier work
[5] = test system: SMN2; assay: Full-length SMN2 RNA in tissues of transgenic SOD1+/- SMN2+/- mice by RT-qPCR; type: in vivo; conditions: 8 mg/kg/week for 5 weeks, tail vein injection, 7 days after final administration, mean±SEM, versus saline-treated control
Procedure: FIG. 6. SMN upregulation in SOD1^G93A mice. A, administration regime. B, Full length (FL) SMN2 levels in brain, spinal cord (S. cord), kidney and quadriceps (Quad) as determined by RT-qPCR in untreated mice (left hand columns) and mice treated with SEQ ID NO:6-PMO conjugate (right hand columns) after administration at a dose of 8 mg/kg weekly for five weeks. *, p<0.05; **, p<0.001; ***, p<0.0001 cf. saline-treated group.
A peptide consisting of the amino acid sequence of SEQ ID NO:6 was conjugated to the PMO antisense oligonucleotide of SEQ ID NO:9 via a non-reducible thioether (thiol-maleimide) bond as described in Example 1. […] Transgenic SOD1^+/− SMN2^+/− mice (n=5) at P60 were treated with Ac-HA2-ApoE(133-150)-PMO conjugate at 8 mg/kg/week for 5 weeks via tail vein injection. Age-matched control mice (n=6) were given saline. Tissues (brain, spinal cord, kidney and quadriceps) were harvested 7 days after final administration. The level of full-length SMN2 RNA was measured using RT-qPCR as above. The level of full-length SMN2 was normalised to mouse HPRT1 with forward primer sequence 5′-[…]-3′ (SEQ ID NO:14) and reverse primer sequence 5′[…]-3′ (SEQ ID NO:15). Data were expressed as mean±SEM. The statistical significances between saline-treated and Ac-HA2-ApoE(133-150)-PMO-treated groups were determined using the Student's t test. […]

[6] = type: in vivo, mice; conditions: 8 mg/kg; dose escalation at 5, 8 and 10 mg/kg; data not shown

| Substance | intracellular fluorescence pattern [1] | cellular uptake on addition of endosomal escape domain HA2 [1] | exon-7 inclusion activity, change in words ([2]; 0.5 μM and 1 μM, versus comparator) | effect on cell viability ([3]; at 10 μM) | effect on cell viability ([3]; up to 5 μM) | side effects such as postprocedural headache and backpain, share of adult patients [4] [%] | level of full length SMN2 RNA (normalised to mouse HPRT1) ([5]; brain) | level of full length SMN2 RNA (normalised to mouse HPRT1) ([5]; spinal cord) | level of exon-7 inclusion activity (full length SMN2/HPRT1, normalised to untreated control set to 1) ([2]; 0.5 μM) | level of exon-7 inclusion activity (full length SMN2/HPRT1, normalised to untreated control set to 1) ([2]; 1 μM) | tolerability [6] | exon-7 inclusion activity, dependence on concentration ([2]; FIG. 3B/3C, 0.5 μM and 1 μM) |
| --- | --- | --- | --- | --- | --- | --- | --- | --- | --- | --- | --- | --- |
| Ac-GLFHAIAHFIHGGWH-X-LRKLRKRLLR-X-C-PMO [HA2-ApoE(141-150)-PMO] | higher fluorescence intensity with a more diffused pattern | significantly enhanced cellular uptake | significant increase in the activity | decrease in cell viability | None of the P-PMO conjugates had a significant effect on cell viability |  |  |  |  |  |  |  |
| TCACTTTCATAATGCTGG (chemistry not given here) [Nusinersen, FDA-approved antisense oligonucleotide for the treatment of spinal muscular atrophy] |  |  |  |  |  | 32 |  |  |  |  |  |  |
| Ac-GLFHAIAHFIHGGWH-X-LRVRLASHLRKLRKRLLR-X-C-PMO [HA2-ApoE(133-150)-PMO] | higher fluorescence intensity with a more diffused pattern | significantly enhanced cellular uptake |  | decrease in cell viability | None of the P-PMO conjugates had a significant effect on cell viability |  | 1.19±0.06 | 1.56±0.1 | 2.02±0.12 | 2.8±0.13 | well-tolerated without any signs of adverse effects |  |
| Ac-LRKLRKRLLR-X-C-PMO [ApoE(141-150)-PMO] | punctate intracellular fluorescence pattern |  |  |  |  |  |  |  |  |  |  | concentration-dependent increase in activity |
